Tested on: blood lymphocyte count
Assay: Decrease in blood lymphocyte count in normal rats after oral administration
Assay type: in vivo, rat
Conditions: 10 mg/kg for the compounds, within 5 hours after drug administration, percentage based on count before administration
Procedure: In order to confirm the effect of administration of the four compounds selected from Experimental Example 1, Compounds 13, 62, 64, and 66, on the decrease in the blood lymphocyte count in rodents in vivo, blood was collected before and after compound administration, and the decrease in the blood lymphocyte count over time was measured using an automatic blood counter, and the results are shown in FIG. 1.
Specifically, 5-week-old male rats (rat, wister, 160-180 g) were acclimated in a temperature- and humidity-controlled breeding room, and the four selected compounds were dissolved in 5% DMSO and 10% Kolliphor HS15 aqueous solution and orally administered at a dose of 10 mg/kg. Blood was collected from the tail vein with a syringe during inhalation anesthesia with 4% isoflurane and transferred to an EDTA-coated tube. The lymphocyte count was measured from the collected blood using an automatic blood counter. As a positive control group, rats administered with fingolimod, a known S1P1 receptor modulator, were used.
As in the positive control group, fingolimod-administered group, it was confirmed that the group administered with the compounds of the Examples within 5 hours after drug administration induced a decrease in the lymphocyte count by 50% or less.

SMILES: CCCCCCCCc1ccc(CCC(N)(CO)CO)cc1 [fingolimod]
- decrease in the lymphocyte count: ≤ 50%

Source: EP4567034A1 (Korea Institute of Science and Technology, priority 2022, dated 2024)
